# In ChEMBL document CHEMBL1177683, “Synthesis and pharmacological evaluation of pyrazine N-acylhydrazone derivatives designed as novel analgesic and anti-inflammatory drug candidates” (2010):
# What was measured:
# Type in all cases: functional
# Mus musculus [1] = assay: Analgesic activity in Swiss mouse assessed as increase in latency of paw licking at 15 umol/kg, ip after 150 mins measured for 60 seconds by hot plate test (reference value: 5.1 +/- 0.4 seconds)
# Mus musculus [2] = assay: Analgesic activity in Swiss mouse assessed as increase in latency of paw licking at 15 umol/kg, ip after 90 mins measured for 60 seconds by hot plate test (reference value: 5.9 +/- 0.8 seconds)
# Mus musculus [3] = assay: Analgesic activity in Swiss mouse assessed as increase in latency of paw licking at 15 umol/kg, ip after 60 mins measured for 60 seconds by hot plate test (reference value: 4.9 +/- 0.5 seconds)
# Mus musculus [4] = assay: Analgesic activity in Swiss mouse assessed as increase in latency of paw licking at 15 umol/kg, ip after 120 mins measured for 60 seconds by hot plate test (reference value: 5.6 +/- 0.5 seconds)
compound,measurement,setting,value
CN1CC[C@]23c4c5ccc(O)c4O[C@H]2[C@@H](O)C=C[C@H]3[C@H]1C5 [MORPHINE],Time,Mus musculus [1],9.7 s
same,Time,Mus musculus [2],10.3 s
same,Time,Mus musculus [3],12.8 s
same,Time,Mus musculus [4],9.7 s
